Test results from patent US20260132127A1, “NOVEL SPIRO COMPOUND” (MITSUBISHI TANABE PHARMA CORPORATION, priority 2021, published 2026).

target: T1, human TRH-DE (Homo sapiens, UniProt Q9UKU6); assay: TRH-DE inhibition test (RapidFire MS measurement of product Cyclo (His-Pro)); type: biochemical; details: membrane fraction of Expi 293 cells expressing human TRH-DE; 10 μM TRH substrate; room temperature, 2 hours; 16-point concentration test
T1 construct: expressed in transfected cells; host or cells: Expi 293 cells (transient expression), membrane fraction
T1 sequence (Q9UKU6 1-1069): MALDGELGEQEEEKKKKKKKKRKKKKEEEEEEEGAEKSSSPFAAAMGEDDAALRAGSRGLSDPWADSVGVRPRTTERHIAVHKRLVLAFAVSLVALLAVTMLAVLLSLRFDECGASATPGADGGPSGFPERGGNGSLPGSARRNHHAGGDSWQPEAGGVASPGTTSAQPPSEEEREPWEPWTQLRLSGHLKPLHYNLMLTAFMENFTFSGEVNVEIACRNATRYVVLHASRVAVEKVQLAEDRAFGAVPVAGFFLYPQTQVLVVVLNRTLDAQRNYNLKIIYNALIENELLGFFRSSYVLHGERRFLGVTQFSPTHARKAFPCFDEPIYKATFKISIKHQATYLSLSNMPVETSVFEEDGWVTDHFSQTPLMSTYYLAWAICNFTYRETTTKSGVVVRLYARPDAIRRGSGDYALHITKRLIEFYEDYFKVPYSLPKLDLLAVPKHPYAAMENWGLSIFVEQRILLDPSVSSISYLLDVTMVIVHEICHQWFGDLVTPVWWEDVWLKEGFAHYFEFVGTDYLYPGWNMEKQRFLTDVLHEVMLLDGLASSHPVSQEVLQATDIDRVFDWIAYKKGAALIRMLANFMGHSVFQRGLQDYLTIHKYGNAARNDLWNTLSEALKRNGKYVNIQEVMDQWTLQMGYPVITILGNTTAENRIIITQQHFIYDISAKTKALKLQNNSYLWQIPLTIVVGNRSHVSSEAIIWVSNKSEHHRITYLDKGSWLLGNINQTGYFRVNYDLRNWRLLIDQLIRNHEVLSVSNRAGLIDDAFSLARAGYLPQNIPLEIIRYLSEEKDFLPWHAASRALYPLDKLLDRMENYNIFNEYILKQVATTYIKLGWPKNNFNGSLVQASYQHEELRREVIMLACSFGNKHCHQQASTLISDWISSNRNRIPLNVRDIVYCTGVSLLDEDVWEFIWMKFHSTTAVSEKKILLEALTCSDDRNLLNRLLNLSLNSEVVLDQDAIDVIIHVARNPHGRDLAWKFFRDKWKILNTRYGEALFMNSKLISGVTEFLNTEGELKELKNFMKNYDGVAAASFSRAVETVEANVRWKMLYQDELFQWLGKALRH
In short: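 Membrane fraction from Expi 293 cells transiently expressing human TRH-DE, at 4 μg/ml in phosphate buffer pH 7.4 with 200 μM bacitracin, reacted with compound and 10 μM substrate for 2 h at room temperature. Cyclo(His-Pro) measured by RapidFire MS against an isotope internal standard. IC50 from 16-point curves.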

IC50 [nM] | SMILES
12 | C[C@@H]1COc2noc(C3CC3)c2C(=O)N1C1CC2(C1)CN(S(=O)(=O)c1ccccc1F)C2 [Example 220]
18 | C[C@@H]1Cn2nc(Cl)cc2C(=O)N1C1CC2(C1)CN(S(=O)(=O)c1ccccc1F)C2 [Example 223]
41 | C[C@@H]1Cn2nc(C(C)(F)F)cc2C(=O)N1C1CC2(C1)CN(S(=O)(=O)c1ccccc1F)C2 [Example 224]
48 | C[C@@H]1Cn2nc(C(F)(F)F)cc2C(=O)N1C1CC2(C1)CN(S(=O)(=O)c1ccccc1F)C2 [Example 228]
33 | C[C@@H]1Cn2ncc(Cl)c2C(=O)N1C1CC2(C1)CN(S(=O)(=O)c1ccccc1F)C2 [Example 229]
19 | C[C@@H]1Cn2ncc(Br)c2C(=O)N1C1CC2(C1)CN(S(=O)(=O)c1ccccc1F)C2 [Example 230]
13 | C[C@@H]1Cn2nc(C3CC3)c(F)c2C(=O)N1C1CC2(C1)CN(S(=O)(=O)c1ccccc1F)C2 [Example 231]
31 | C[C@@H]1Cn2cnc(Br)c2C(=O)N1C1CC2(C1)CN(S(=O)(=O)c1ccccc1F)C2 [Example 233]
3 | C[C@@H]1COc2nc([C@@H]3C[C@H]3F)sc2C(=O)N1C1CC2(C1)CN(S(=O)(=O)c1ccccc1F)C2 [Example 235, (6R)-2-[(1R,2R)-2-fluorocyclopropyl]-7-[2-(2-fluorophenyl)sulfonyl-2-azaspiro[3.3]heptan-6-yl]-6-methyl-5,6-dihydrothiazolo[5,4-f][1,4]oxazepin-8-one]
11 | CC1COc2ccccc2C(=O)N1C1CC2(C1)CN(S(=O)(=O)c1ccccc1F)C2 (stereo not drawn) [Example 239, 4-[2-(2-fluorophenyl)sulfonyl-2-azaspiro[3.3]heptan-6-yl]-3-methyl-2,3-dihydro-1,4-benzoxazepin-5-one]
436 | Cc1nn(C2CC3(C2)CN(S(=O)(=O)c2ccccc2F)C3)c(=O)c2ncccc12 [Example 243]
731 | CC1c2ccccc2N(C)C(=O)CN1C1CC2(C1)CN(S(=O)(=O)c1ccccc1F)C2 (stereo not drawn) [Example 248]
2 | C[C@@H]1CNc2cc(C(F)(F)F)cnc2C(=O)N1C1CC2(C1)CN(S(=O)(=O)c1ccccc1F)C2 [Example 254]
7 | C[C@@H]1CNc2ncccc2C(=O)N1C1CC2(C1)CN(S(=O)(=O)c1ccccc1F)C2 [Example 255]
61 | C[C@@H]1CNc2ncc(C(F)(F)F)cc2C(=O)N1C1CC2(C1)CN(S(=O)(=O)c1ccccc1[N+](=O)[O-])C2 [Example 257]
1 | C[C@@H]1CNc2nc(C3CC3)ccc2C(=O)N1C1CC2(C1)CN(S(=O)(=O)c1ccccc1F)C2 [Example 258, (3R)-8-cyclopropyl-4-[2-(2-fluorophenyl)sulfonyl-2-azaspiro[3.3]heptan-6-yl]-3-methyl-2,3-dihydro-1H-pyrido[2,3-e][1,4]diazepin-5-one]
97 | Cc1nnc2n1CC[C@@H](C)N(C1CC3(C1)CN(S(=O)(=O)c1ccccc1F)C3)C2=O [Example 260, (7R)-8-[2-(2-fluorophenyl)sulfonyl-2-azaspiro[3.3]heptan-6-yl]-3,7-dimethyl-6,7-dihydro-5H-[1,2,4]triazolo[4,3-a][1,4]diazepin-9-one]
28 | C[C@@H]1CCn2c(nnc2C2CC2)C(=O)N1C1CC2(C1)CN(S(=O)(=O)c1ccccc1F)C2 [Example 261]
91 | C[C@@H]1CCn2c(nnc2C(C)(C)C)C(=O)N1C1CC2(C1)CN(S(=O)(=O)c1ccccc1F)C2 [Example 262]
32 | C[C@@H]1CCn2c(nnc2-c2ccccc2)C(=O)N1C1CC2(C1)CN(S(=O)(=O)c1ccccc1F)C2 [Example 263]

Further lines, the compound ahead of its results:

SMILES | IC50 [nM]
C[C@@H]1CCN2CCC[C@H]2C(=O)N1C1CC2(C1)CN(S(=O)(=O)c1ccccc1F)C2 [Example 221] | 988
C[C@@H]1CCN2CCC[C@H]2C(=O)N1C1CC2(C1)CN(S(=O)(=O)c1ccccc1F)C2 [Example 222] | 449
C[C@@H]1Cn2nc(C3CC3)cc2C(=O)N1C1CC2(C1)CN(S(=O)(=O)c1ccccc1F)C2 [Example 225] | 11
C[C@@H]1Cn2nc(C3(F)CC3)cc2C(=O)N1C1CC2(C1)CN(S(=O)(=O)c1ccccc1F)C2 [Example 226] | 16
C[C@@H]1Cn2nc(C3(C(F)(F)F)CC3)cc2C(=O)N1C1CC2(C1)CN(S(=O)(=O)c1ccccc1F)C2 [Example 227] | 9
C[C@@H]1Cn2nc(F)c(Br)c2C(=O)N1C1CC2(C1)CN(S(=O)(=O)c1ccccc1F)C2 [Example 232] | 21
C[C@@H]1COc2nc([C@H]3C[C@H]3F)sc2C(=O)N1C1CC2(C1)CN(S(=O)(=O)c1ccccc1F)C2 [Example 234, (6R)-2-[(1S,2R)-2-fluorocyclopropyl]-7-[2-(2-fluorophenyl)sulfonyl-2-azaspiro[3.3]heptan-6-yl]-6-methyl-5,6-dihydrothiazolo[5,4-f][1,4]oxazepin-8-one] | 4
C[C@@H]1COc2nc([C@@H]3C[C@@H]3F)sc2C(=O)N1C1CC2(C1)CN(S(=O)(=O)c1ccccc1F)C2 [Example 236, (6R)-2-[(1R,2S)-2-fluorocyclopropyl]-7-[2-(2-fluorophenyl)sulfonyl-2-azaspiro[3.3]heptan-6-yl]-6-methyl-5,6-dihydrothiazolo[5,4-f][1,4]oxazepin-8-one] | 2
C[C@@H]1COc2nc([C@H]3C[C@@H]3F)sc2C(=O)N1C1CC2(C1)CN(S(=O)(=O)c1ccccc1F)C2 [Example 237, (6R)-2-[(1S,2S)-2-fluorocyclopropyl]-7-[2-(2-fluorophenyl)sulfonyl-2-azaspiro[3.3]heptan-6-yl]-6-methyl-5,6-dihydrothiazolo[5,4-f][1,4]oxazepin-8-one] | 3
C[C@@H]1Cn2c(cnc2C(F)(F)F)C(=O)N1C1CC2(C1)CN(S(=O)(=O)c1ccccc1F)C2 [Example 238, (6R)-7-[2-(2-fluorophenyl)sulfonyl-2-azaspiro[3.3]heptan-6-yl]-6-methyl-3-(trifluoromethyl)-5,6-dihydroimidazo[1,5-a]pyrazin-8-one] | 357
CC1Cc2ccccc2C(=O)N1C1CC2(C1)CN(S(=O)(=O)c1ccccc1F)C2 (stereo not drawn) [Example 240] | 14
Cc1nn(C2CC3(C2)CN(S(=O)(=O)c2ccccc2)C3)c(=O)c2ccccc12 [Example 241] | 616
Cc1nn(C2CC3(C2)CN(S(=O)(=O)c2ccccc2F)C3)c(=O)c2ccccc12 [Example 242] | 655
O=C1c2ccccc2C2(CC2)N1C1CC2(C1)CN(S(=O)(=O)c1ccccc1F)C2 [Example 244] | 42
CCN1C[C@@H](C)N(C2CC3(C2)CN(S(=O)(=O)c2ccccc2F)C3)C(=O)c2ncccc21 [Example 245, (3R)-1-ethyl-4-[2-(2-fluorophenyl)sulfonyl-2-azaspiro[3.3]heptan-6-yl]-3-methyl-2,3-dihydropyrido[3,2-e][1,4]diazepin-5-one] | 2
COCCCN1C[C@@H](C)N(C2CC3(C2)CN(S(=O)(=O)c2ccccc2F)C3)C(=O)c2ncccc21 [Example 246] | 22
C[C@@H]1CN(C)c2nc(C(F)(F)F)ccc2C(=O)N1C1CC2(C1)CN(S(=O)(=O)c1ccccc1F)C2 [Example 247, (3R)-4-[2-(2-fluorophenyl)sulfonyl-2-azaspiro[3.3]heptan-6-yl]-1,3-dimethyl-8-(trifluoromethyl)-2,3-dihydropyrido[2,3-e][1,4]diazepin-5-one] | 2
CCn1c2ccccc2c(=O)n1C1CC2(C1)CN(S(=O)(=O)c1ccccc1)C2 [Example 250, 2-[2-benzenesulfonyl-2-azaspiro[3.3]heptan-6-yl]-1-ethyl-indazol-3-one] | 214
C[C@@H]1CNc2nc(Cl)ccc2C(=O)N1C1CC2(C1)CN(S(=O)(=O)c1ccccc1F)C2 [Example 251, (3R)-8-chloro-4-[2-(2-fluorophenyl)sulfonyl-2-azaspiro[3.3]heptan-6-yl]-3-methyl-2,3-dihydro-1H-pyrido[2,3-e][1,4]diazepin-5-one] | 1
C[C@@H]1CNc2cc(Cl)cnc2C(=O)N1C1CC2(C1)CN(S(=O)(=O)c1ccccc1F)C2 [Example 253] | 8
C[C@@H]1CNc2ncc(C(F)(F)F)cc2C(=O)N1C1CC2(C1)CN(S(=O)(=O)c1ccccc1F)C2 [Example 256] | 3
Cc1nnc2n1C[C@@H](C)N(C1CC3(C1)CN(S(=O)(=O)c1ccccc1F)C3)C2=O [Example 264] | 459
